From US8101666B2, “Methods and compounds for detection of medical disorders” (Aposense Ltd., priority 2004, dated 2012)

Assays:
[1] = system: apoptotic cells in tumor, murine melanoma-derived B16-F10 cells; assay: Targeting of DC in vivo to apoptotic cells in B16-F10 murine melanoma tumor, fluorescent microscopy; design: species or system mice; settings: 2 mg/mouse i.v., 2 h; for uptake by the apoptotic or the viable tumor cells: data not shown
Procedure: Tumors, and especially aggressive malignancies such as melanoma are characterized, in addition to the abnormal tissue proliferation, also by marked apoptosis of tumor cells. The performance of DC in selective targeting of these apoptotic cells within the tumor was therefore examined. Mice (c57/black; 8 weeks old male mice) were injected subcutaneously bilaterally, in the flank, with murine melanoma-derived B16-F10 cells (ATCC CRL-6475; 10^5 cells/mice in a volume of 100 μl). Prior to injection, the cell line was maintained in culture in Dulbecco's modified Eagle's medium (DMEM), supplemented with 4 mM of L-glutamine; 100 units/ml of penicillin; 100 μg/ml of streptomycin; 12.5 units/ml of nystatin and 10% of fetal calf serum (FCS). Tumors were allowed to grow for 14 days, by which they reached a diameter of 5-7 mm.
Dansyl-cysteine (DC), or the control compounds dansyl-glycine or dansyl-serine (2 mg/mouse each in NaPpi buffer, pH. 7.40) was injected intravenously. Two hours later, mice were scarified and the tumors, as well as other organs were taken, and immediately frozen in liquid nitrogen. Frozen sections were then prepared from each of the organs. Uptake of the examined compounds by the tumors or other organs was assessed by fluorescent microscopy.

[2] = system: brain cells undergoing apoptosis following middle cerebral artery (MCA) cauterization; assay: Selective binding of NST729 to cells undergoing cell death following MCA occlusion, fluorescent microscopy of brain sections; format: in vivo; settings: Balb/C mice
Procedure: Studies were carried out in adult male Balb/C mice, weighing 20-25 g. Ischemia was induced by unilateral cauterization of the middle cerebral artery. Briefly, mice were anesthetized, and ischemia was induced through a subtemporal approach. The craniotomy was performed at the level where the MCA crossed the lateral olfactory tract. […] All visible branches also were occluded to prevent blood supply by passing. The incision sites were clipped closed and the animal was injected with analgesics and allowed to recover.

[3] = system: amyloid plaques; assay: Detection of amyloid plaques in APP Swedish TG2576 mice, fluorescent microscopy of brain sections; format: in vivo; settings: i.v., 2 h
Procedure: Studies were carried out in one and a half year old APP Swedish TG2576 mice, which have a mutation of APP. BDA (which lacks a free thiol residue) and NST729 were injected i.v., two hours later, mice were anesthetized and brains were removed into liquid nitrogen for further analysis. Frozen section of 10 μm thickness each were prepared, and visualized by fluorescent microscopy.

[4] = system: degenerating neuronal cells; assay: Selective binding of NST729 in vivo to degenerating neuronal cells in a mouse model of motor neuron disease (SOD G93A); settings: SOD G93A transgenic mice, 1.4 mg/animal i.v., 2 h
Procedure: Studies were carried out in transgenic mice for SOD with point mutation of G93A. NST729 (1.4 mg / animal in 200 μl 50% Cremophor/ trizma-base 0.1M was injected i.v. After two hours, mice were anesthetized and brain +spinal cord were removed into liquid nitrogen for further analysis. Frozen sections of 10 μm thickness were prepared. The slices were visualized by fluorescent microscopy.

[5] = system: cells undergoing apoptosis, induced by cerebral ischemia due to middle cerebral artery (MCA) occlusion; assay: Selective targeting of NST739 to cells undergoing cell death following MCA occlusion, fluorescent microscopy of brain sections; format: in vivo; settings: Balb/C mice
Procedure: An in vivo experiment was conducted in mice, in order to show the performance of NST739 in selective binding to cells undergoing apoptosis, induced by cerebral ischemia due to middle cerebral artery (MCA) occlusion.
Studies were carried out in adult male Balb/C mice, weighing 20-25 g. Cerebral ischemia was induced by unilateral cauterization of the middle cerebral artery. Briefly, mice were anesthetized, and ischemia was induced through a subtemporal approach. The craniotomy was performed at the level where the MCA crossed the lateral olfactory tract. […] All visible branches also where occluded to prevent blood supply by passing. The incision sites were clipped closed and the animal was injected with analgesics and allowed to recover. Twenty-two hours after the middle cerebral artery (MCA) cauterization, NST739 or the control compound BDA (1.4 mg/animal each) were injected i.v. At 24 h from the induction of the injury, and two hours after administration of NST739, mice were anesthetized, sacrificed, and brains were removed into liquid nitrogen for further analysis. […] Frozen sections were prepared. The slices were visualized by fluorescent microscopy.

CN(C)c1cccc2c(S(=O)(=O)NCC(=O)O)cccc12 [dansyl-glycine, reference compound]
uptake by the apoptotic or the viable tumor cells ([1]; B16-F10 tumors): did not manifest a significant uptake

CN(C)c1cccc2c(S(=O)(=O)N[C@@H](CS)C(=O)O)cccc12 [DC, dansyl-cysteine]
binding to tumor cells undergoing cell death ([1]; c57/black mice, B16-F10 tumors): Extensive binding | staining of viable tumor cells ([1]; c57/black mice, B16-F10 tumors): remain unstained | binding to normal, viable small intestine tissue ([1]; same animal): lack of binding

CN(C)c1cccc2c(S(=O)(=O)N[C@@H](CO)C(=O)O)cccc12 [dansyl-serine, reference compound]
uptake by the apoptotic or the viable tumor cells ([1]; B16-F10 tumors): did not manifest a significant uptake

CN(C)c1cccc2c(S(=O)(=O)NCCS)cccc12 [NST729, n-(2-mercaptoethyl)-dansylamide]
binding to cells in the damaged area ([2]; 1.4 mg i.v. 22 h after MCA cauterization, brains removed 2 h later): extensive binding | number of apoptotic events detected compared with BDA ([2]; MCA cauterization, i.v., 2 h, versus control BDA): significantly higher | level of binding (fluorescence intensity) compared with BDA ([2]; MCA cauterization, i.v., 2 h, versus control BDA lacking the thiol group): markedly higher | staining of surrounding brain cells ([3]; APP Swedish TG2576 mice): remained unstained | intensity of binding to the plaques compared with BDA (fluorescence intensity) ([3]; APP Swedish TG2576 mice, versus control BDA): markedly higher | visualization of amyloid plaques ([3]; one and a half year old APP Swedish TG2576 mice): strongly visualized | uptake by degenerating neuronal cells and axons (motor nuclei of the pons) [4]: marked uptake | uptake by other cells in the same region and cells in other brain regions [4]: did not manifest such uptake

CN(C)c1cccc2c(S(=O)(=O)N(CCS)CCCF)cccc12 [NST739, N-(3-fluoropropyl)-N-(2-thioethyl)-dansylamide]
binding to cells in the damaged area ([5]; 1.4 mg/animal i.v. 22 h after MCA cauterization, brains removed 2 h later): extensive binding | staining of cells in other brain regions ([5]; MCA cauterization, 1.4 mg/animal i.v., 2 h): remained unstained | level of binding (fluorescence) compared with BDA ([5]; MCA cauterization, 1.4 mg/animal i.v., 2 h, versus control BDA lacking the thiol group): significantly higher
